In brackets after ≈: the same amount, converted by molar mass.
Key:
Neutrophil [1] = assay: Ratio of Genistein IC50 to compound IC50 for inhibition of fMLP/CB-induced elastase release in human neutrophils; type: functional
[2] = Antiinflammatory activity in human neutrophils assessed as inhibition of fMLP/CB-induced superoxide anion generation after 5 mins; type: functional, cell-based; conditions: Neutrophil
Neutrophil [3] = assay: Ratio of Genistein IC50 to compound IC50 for inhibition of fMLP/CB-induced superoxide anion generation in human neutrophils; type: functional
[4] = Antiinflammatory activity in human neutrophils assessed as inhibition of fMLP/CB-induced elastase release after 5 mins; type: functional, cell-based; conditions: Neutrophil

| Compound | IC50 [2] [µg/mL] | IC50 [4] [µg/mL] | Ratio IC50 (Neutrophil [1]) | Ratio IC50 (Neutrophil [3]) |
| --- | --- | --- | --- | --- |
| O=C1Nc2cc3ccc(O)cc3c3c4c(cc1c23)OCO4 | 0.12 (≈ 0.43 µM) | 0.2 (≈ 0.716 µM) | 35 | 4.5 |
| COc1cccc2c1cc([N+](=O)[O-])c1c(C(=O)O)cc3c(c12)OCO3 [ARISTOLOCHIC ACID] | > 10 | > 10 | – | – |
| COC(=O)c1cc2c(c3c1c([N+](=O)[O-])cc1c(OC)cccc13)OCO2 | > 10 | > 10 | – | – |
| O=C(O)c1cc2c(c3c1c([N+](=O)[O-])cc1ccc(O)cc13)OCO2 [ARISTOLOCHIC ACID C] | > 10 | > 10 | – | – |
| COC(=O)c1cc2c(c3c1ccc1c(OC)cc(OC)cc13)OCO2 [ARISTOLIC ACID METHYL ESTER] | > 10 | > 10 | – | – |
| NC(=O)c1cc2c(c3c1ccc1ccccc13)OCO2 [ARISTOLAMIDE II] | > 10 | 4.11 (≈ 15.5 µM) | – | – |
| COc1cc(O)cc2c1cc([N+](=O)[O-])c1c(C(=O)O)cc3c(c12)OCO3 [ARISTOLOCHIC D] | 5.78 (≈ 16.2 µM) | 8.49 (≈ 23.8 µM) | – | – |

Second part, led by results:

| IC50 [2] [µg/mL] | IC50 [4] [µg/mL] | Compound | Ratio IC50 (Neutrophil [1]) | Ratio IC50 (Neutrophil [3]) |
| --- | --- | --- | --- | --- |
| 0.54 (≈ 2 µM) | 6.99 (≈ 25.9 µM) | O=c1c(-c2ccc(O)cc2)coc2cc(O)cc(O)c12 [GENISTEIN] | – | – |
| > 10 | > 10 | COc1cccc2c1ccc1c(C(N)=O)cc3c(c12)OCO3 [ARISTOLAMIDE] | – | – |
| > 10 | > 10 | COC(=O)c1cc2c(c3c1ccc1c(OC)cccc13)OCO2 [METHYL ARISTOLATE] | – | – |
